Assay results published in patent US11001808B2, “Immortalization of epithelial cells and methods of use” (Georgetown University, priority 2010, dated 2021).
“Also recorded” adds a separate entry of the source.

Experiments:
[1] = system: HPV-11-containing tumor cells from the patient; assay: Cell viability curves (CellTiter-Glo Luminescent Cell Viability Assay), patient's cultured tumor cells; assay type: cell-based, human; details: for sensitivity of tumor cells compared with normal lung cells: tumor versus normal lung cells of the same patient, 24 hours
Procedure: (§1) Normal and tumor cells were treated with Cidofovir, Vorinostat or DHA at indicated concentration for 24 hours. Cell viabilities were measured using CellTiter-Glo® Luminescent Cell Viability Assay (Promega)
(§2) There is no data in the literature, however, analyzing the effect of these inhibitors on cells containing low-risk HPVs, because there are no cell lines established that contain HPV-6 or HPV-11. […] More importantly, this cell line was used to evaluate the sensitivity to the above inhibitors and to compare it to the sensitivity of normal lung cells isolated from the same patient (FIG. 17).
(§3) Cidovovir is the most common drug used for treating RRP.

[2] = system: recurrent respiratory papillomatosis; assay: Vorinostat therapy of the patient, follow-up by CT scan; assay type: in vivo, human; details: one patient, 400 mg/daily, 4 week cycle (3 weeks on, 1 week off)
From the text: A patient with recurrent papillomatosis of the larynx for 16 years was chosen for this study. The disease progressively involved not only the larynx, but had spread to the upper airway (trachea and bronchi) and recently into the lung parenchyma. The patient had had more than 350 surgeries. Besides surgeries, multiple treatments had failed, including interferon treatment (1996-2010), Methotrexate (2001-03), intralesional Cidofovir (2007-2010), and intralesional Avastin (2010). […] By October 2010, the size each lung lesion examined was increasing. During the last surgical intervention, a wedge resection of the right upper lobe was performed to remove metastatic tumor. […] Koilocytotic changes in such tumors are an indication that the tumor is producing infectious HPV. However, at the time of intervention, the type of HPV involved in this tumor had not been identified. Since the tumor had not responded to several different treatment modalities, it was also unclear how the patient would be treated following surgery.
Based on the in vitro sensitivity data, the patient was placed on Vorinostat therapy in January of 2011. The therapy consisted 4 week cycle (3 weeks on, 1 week off) of Vorinostat at 400 mg/daily. […] Thus, the use of the cell culture methods of the present invention were critical in determining a response profile of the abnormal cells, which enabled the identification of at least two chemotherapeutic agents that might be useful for treating this patient's tumors. Using the cell culture methods of the present invention, the response profile, including the genetic analysis and the therapeutic index, was generated within one week of biopsy.

normal lung cells = assay: Cell viability curves (CellTiter-Glo Luminescent Cell Viability Assay), normal cells of the same patient; details: treated 24 hours, cell type of the LD50 not stated, taken as normal lung cells from context
Procedure: as §1, §2, §3

human prostate cells = assay: Proliferation in serum-containing F medium with Rho-Rock-Myosin pathway inhibitors, Crystal Violet staining (FIG. 23); assay type: cell-based; details: about 5000 cells in 6-well plates, 8 days, Y-27632 5 μM, HA-1100 20 μM, GSK429286 0.1 μM, Fasudil 30 μM, C3 transferase 2 μg/ml, Blebbistatin 5 μM
Procedure: FIG. 23 depicts that inhibition of the Rho-Rock-Myosin pathway prevents cells from terminally differentiating, allowing the cells to proliferate in serum-containing medium. Normally, serum-containing medium induces terminal differentiation of primary epithelial cells and, in turn, causes senescence in culture. Approximately 5000 human prostate cells were plated in 6-well plates in F medium with addition of Rock inhibitors Y-27632 (5 μM), HA-1100 (20 μM), GSK429286 (0.1 μM), Fasudil (30 μM), a Rho inhibitor (C3 transferase, 2 μg/ml), or a Mysin inihibitor (-Blebbistatin, 5 μM). Eight days later, cells were fixed and stained with 0.05% Crystal Violet.
As used herein, inhibiting ROCK can mean to reduce the activity, function or expression of at least one of ROCK1 or ROCK2. […] In general, ROCK phosphorylates LIM kinase and myosin light chain (MLC) phosphatase after being activated through binding of GTP-bound Rho. One embodiment of the present invention thus involves blocking the upstream pathway of ROCK1 and/or ROCK2, for example GTP-bound Rho, such that ROCK1 and/or ROCK2 is not activated or its activity is reduced over untreated cells. Other upstream effectors include but are not limited to, integrins, growth factor receptors, including but not limited to, TGF-beta and EGFR, cadherins, G protein coupled receptors and the like. Another embodiment of the present invention thus involves blocking the activity, function or expression of downstream effector molecules of activated ROCK1 and/or ROCK2 such that ROCK1 and/or ROCK2 can not propagate any signal or can only propagate a reduced signal over untreated cells. Downstream effectors include but are not limited to, Myosin phosphatase-targeting protein (MYPT), vimentin, LIMK, Myosin light chain kinase, NHE1, cofilin, Myosin II and the like. […] Upstream or downstream inhibition of ROCK, in place of direct ROCK inhibition and in conjunction with the other culture conditions described and required herein, may or may not generate conditionally immortalized NKE cells.

[3] = system: cervical cancer cells that express the high-risk HPVs; details: previous studies; cited from earlier work
[4] = system: human primary prostate cells; assay: In vitro growth curves under various growth conditions (FIG. 2A); assay type: cell-based
Procedure: (§4) FIGS. 2A-2B depict in vitro growth curves of human primary prostate cells and human primary mammary cells under various growth conditions. (A) PrEGM is a synthetic commercial prostate epithelial cell growth medium; (B) MEGM is a synthetic commercial mammary epithelial cell medium; Feeders are J2 mouse fibroblasts that have been irradiated or treated with mitomycin C; ROCK inhibitor is Y27632 at a concentration of 10 μM that was applied to the cells at initial plating and thereafter. The y-axis is population doublings and the x-axis is number of days. Media was changed every 3 days for all groups.
(§5) Primary HMECs and HPECs were grown under the four different conditions noted in FIG. 2. […] Feeders were the J2 mouse fibroblasts that have been gamma irradiated. The ROCK inhibitor was Y27632 at a concentration of 10 μM that was applied to the cells at initial plating and thereafter. The y-axis is population doublings and the x-axis is number of days. Media was changed every 2-3 days for all groups.
(§6) Cells grown in the presence of the feeder cells in F medium without ROCK inhibitor had about the same growth rate, i.e., the slope of the lines was about the same, but the cells grown in the presence of feeder cells eventually stopped growing.

airway epithelial cells = details: Moore et al., 2004; cited from earlier work
[5] = system: human primary mammary cells; assay: In vitro growth curves under various growth conditions (FIG. 2B); assay type: cell-based
Procedure: as §4, §5, §6

[6] = system: recurrent papillomatosis of the larynx; details: patient history: interferon 1996-2010, Methotrexate 2001-03, intralesional Cidofovir 2007-2010, intralesional Avastin 2010; cited from earlier work
[7] = F medium, irradiated J2 feeders, 10 μM from initial plating

**Q.** With `O=C(CCCCCCC(=O)Nc1ccccc1)NO` [SAHA] as the compound, how does the “sensitivity of tumor cells compared with normal lung cells” value [1] read?
**A.** approximately 100 fold

**Q.** What about the “lesions in more recent CT scan” value [2] of the same compound?
**A.** all lesions had stabilized

**Q.** What about the “lesions in subsequent CT scan” value [2] of the same compound?
**A.** no new lesions were identified, smaller lesions were shrinking, and some larger lesions were also decreasing in size

**Q.** What about the side effects [2] of the same compound?
**A.** no major side effects had been observed

**Q.** And the LD50 (normal lung cells)?
**A.** approximately 200 μM

**Q.** Which “suppression of serum-induced differentiation / proliferation in serum-containing medium” value (human prostate cells) does the source give for `CC1=C(C(=O)Nc2cc3cn[nH]c3cc2F)C(c2ccc(C(F)(F)F)cc2)CC(=O)N1` (stereo not shown) [GSK429286] here?
**A.** able to suppress cell differentiation by serum

**Q.** With `C[C@H]1[C@H](OC(=O)CCC(=O)O)O[C@@H]2O[C@@]3(C)CC[C@H]4[C@H](C)CC[C@@H]1[C@@]24OO3` [artesunate] as the compound, how does the “killing of cervical cancer cells” value [3] read?
**A.** able to efficiently kill

**Q.** What does the source list for `C[C@@H](N)[C@H]1CC[C@H](C(=O)Nc2ccncc2)CC1` [Y-27632]?
**A.** growth (population doublings) with feeder cells in F medium plus ROCK inhibitor [4, 7]: have continued to grow; growth (population doublings) on addition of ROCK inhibitor to synthetic medium ([4]; PrEGM synthetic serum-free medium, 10 μM, no feeders): did not affect growth; suppression of serum-induced differentiation / proliferation in serum-containing medium (human prostate cells): able to suppress cell differentiation by serum; effect of inhibition on airway epithelial cells (airway epithelial cells): induces membrane ruffling, loss of actin stress fibers and apoptosis; growth (population doublings) with feeder cells in F medium plus ROCK inhibitor [5, 7]: have continued to grow; growth (population doublings) on addition of ROCK inhibitor to synthetic medium ([5]; MEGM synthetic serum-free medium, 10 μM, no feeders): did not affect growth

**Q.** For `O=S(=O)(c1cccc2cnccc12)N1CCCNCC1` [Fasudil], which “suppression of serum-induced differentiation / proliferation in serum-containing medium” value (human prostate cells) is on record?
**A.** able to suppress cell differentiation by serum

**Q.** What about the “effect of inhibition on airway epithelial cells” value (airway epithelial cells) of the same compound?
**A.** induces membrane ruffling, loss of actin stress fibers and apoptosis

**Q.** For “Avastin: intralesional Avastin, earlier treatment of the patient”, which “outcome of earlier treatment” value [6] is on record?
**A.** failed

**Q.** What does the source list for `Cc1ccc2c(c1)C(=O)C1(O)CCN(c3ccccc3)C1=N2` (stereo not shown) [Blebbistatin]?
**A.** suppression of serum-induced differentiation / proliferation in serum-containing medium (human prostate cells): able to suppress cell differentiation by serum; suppression of serum-induced differentiation / proliferation in serum-containing medium (human prostate cells; listed as blebbistatin): allow the cells to bypass differentiation and allow proliferation in vitro

**Q.** With `CN(Cc1cnc2nc(N)nc(N)c2n1)c1ccc(C(=O)N[C@@H](CCC(=O)O)C(=O)O)cc1` [Methotrexate] as the compound, how does the “outcome of earlier treatment” value [6] read?
**A.** failed

**Q.** Which “sensitivity of tumor cells compared with normal lung cells” value [1] does the source give for `C[C@H]1[C@@H](O)O[C@@H]2O[C@@]3(C)CC[C@H]4[C@H](C)CC[C@@H]1[C@@]24OO3` [DHA] here?
**A.** approximately 100 fold

**Q.** And the “killing of cervical cancer cells” value [3]?
**A.** able to efficiently kill

**Q.** Which “suppression of serum-induced differentiation / proliferation in serum-containing medium” value (human prostate cells) does the source give for C3 transferase here?
**A.** able to suppress cell differentiation by serum; also recorded: allow the cells to bypass differentiation and allow proliferation in vitro

**Q.** With `O=S(=O)(c1cccc2c(O)nccc12)N1CCCNCC1` [HA-1100] as the compound, how does the “suppression of serum-induced differentiation / proliferation in serum-containing medium” value (human prostate cells) read?
**A.** able to suppress cell differentiation by serum

**Q.** Which “effect on cell viability in vitro” value ([1]; very high concentrations (50-200 μM), 24 hours (FIG. 17A)) does the source give for `Nc1ccn(C[C@@H](CO)OCP(=O)(O)O)c(=O)n1` [Cidofovir] here?
**A.** completely ineffective

**Q.** What about the “outcome of earlier treatment” value [6] of the same compound?
**A.** failed
